Measurements from the supplement of paper PMC10307832.

Key:
Test in all cases: relative viability (nuclei count vs DMSO), 5 days (fraction); higher = more cells survive
[1] = compound: C#Cc1cccc(Nc2ncnc3cc(OC)c(OCCCCCCC(=O)NO)cc23)c1 [CUDC-101] + O=C(c1cc(Cc2n[nH]c(=O)c3ccccc23)ccc1F)N1CCN(C(=O)C2CC2)CC1 [Olaparib] (partner 8 µM)
Summary of the method: (§1)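 Medians of duplicate plates are given as relative viability. That measure is the nuclei count in treated wells divided by the count in vehicle wells. Counts were taken on 4× images of lung cancer cell lines in 1536-well plates, 5 days after pin-tool dosing the day after seeding with one drug alone or a fixed anchor-drug dose plus five library-drug doses (not always all listed) in √10 steps.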

[2] = compound: COc1cc2/c(=N/c3ccc(Br)cc3F)nc[nH]c2cc1OCC1CCN(C)CC1 [Vandetanib] + C[C@@H](Oc1cc(-c2cnn(C3CCNCC3)c2)cnc1N)c1c(Cl)ccc(F)c1Cl [Crizotinib] (partner 1 µM)
Summary of the method: as §1

[3] = compound: C1=CC=C2C(=C1)N=C(S2)C(C#N)C3=NC(=NC=C3)NCCC4=CN=CC=C4 + Nc1nc2[nH]cc(CCc3ccc(C(=O)N[C@@H](CCC(=O)O)C(=O)O)cc3)c2c(=O)[nH]1 [Pemetrexed] (partner 0.2 µM)
Summary of the method: as §1

[4] = compound: COc1cc2/c(=N/c3ccc(Br)cc3F)nc[nH]c2cc1OCC1CCN(C)CC1 [Vandetanib] + Nc1nc2[nH]cc(CCc3ccc(C(=O)N[C@@H](CCC(=O)O)C(=O)O)cc3)c2c(=O)[nH]1 [Pemetrexed] (partner 0.2 µM)
Summary of the method: as §1

| Cell Line | relative viability ([1]; first compound 0.01 µM) | relative viability ([1]; first compound 0.03162 µM) | relative viability ([1]; first compound 0.1 µM) | relative viability ([1]; first compound 0.3162 µM) | relative viability ([1]; first compound 1 µM) | relative viability ([2]; first compound 0.02 µM) | relative viability ([2]; first compound 0.06325 µM) | relative viability ([2]; first compound 0.2 µM) | relative viability ([2]; first compound 0.6325 µM) | relative viability ([2]; first compound 2 µM) | relative viability ([3]; first compound 0.005 µM) | relative viability ([3]; first compound 0.05 µM) | relative viability ([3]; first compound 0.1581 µM) | relative viability ([3]; first compound 0.5 µM) | relative viability ([4]; first compound 0.02 µM) | relative viability ([4]; first compound 0.06325 µM) | relative viability ([4]; first compound 0.2 µM) | relative viability ([4]; first compound 0.6325 µM) | relative viability ([4]; first compound 2 µM) | relative viability ([3]; first compound 0.01581 µM) |
| --- | --- | --- | --- | --- | --- | --- | --- | --- | --- | --- | --- | --- | --- | --- | --- | --- | --- | --- | --- | --- |
| ABC-1 | 0.908 | 0.767 | 1.14 | 0.922 | 0.424 | 1.13 | 1.05 | 1 | 1.34 | 0.728 |  |  |  |  |  |  |  |  |  |  |
| NCI-H727 | 0.797 | 0.623 | 0.708 | 0.699 | 0.461 | 0.821 | 0.885 | 0.786 | 0.65 | 0.687 |  |  |  |  |  |  |  |  |  |  |
| PC-3 [JPC-3] | 1.09 | 0.959 | 0.821 | 0.515 | 0.479 | 0.96 | 0.943 | 0.935 | 0.811 | 0.52 | 1.14 | 1.08 | 1.37 | 0.914 | 1.21 | 0.937 | 0.824 | 0.65 | 0.374 |  |
| IA-LM | 0.768 | 0.871 | 0.74 | 0.86 | 0.46 | 0.978 | 0.802 | 0.899 | 1.3 | 1.24 |  |  |  |  |  |  |  |  |  |  |
| NCI-H2342 | 0.425 | 0.487 | 0.44 | 0.513 | 0.432 |  |  |  |  |  | 0.823 | 0.697 | 0.85 | 0.81 | 0.728 | 0.832 | 0.77 | 0.801 | 0.668 | 0.716 |
| NCI-H522 | 0.674 | 0.624 | 0.7 | 0.693 | 0.529 |  |  |  |  |  | 1.22 | 1.01 | 0.807 | 1.03 | 0.941 | 1.02 | 0.957 | 1.25 | 0.999 | 0.698 |
| Calu-6 | 0.545 | 0.503 | 0.522 | 0.484 | 0.332 | 0.816 | 0.723 | 0.897 | 0.833 | 0.791 |  |  |  |  |  |  |  |  |  |  |
| NCI-H1703 |  | 0.389 | 0.489 | 0.662 | 0.428 | 0.672 |  | 0.515 | 0.547 | 0.234 |  |  |  |  |  |  |  |  |  |  |
| NCI-H1793 | 0.857 | 0.753 | 0.888 | 0.944 | 0.549 |  |  |  |  |  |  | 0.851 | 1.07 | 1.1 | 1.02 | 0.779 | 0.772 | 0.711 | 0.744 | 0.799 |
| NCI-H1563 |  |  |  |  |  | 0.887 | 0.835 | 0.794 | 0.852 | 0.858 | 0.751 | 0.696 | 0.779 | 0.764 | 0.75 | 0.732 | 0.755 | 0.678 | 0.755 | 0.728 |
| EBC-1 | 0.744 | 0.674 | 0.683 | 0.666 | 0.26 | 0.19 | 0.177 | 0.195 | 0.194 | 0.152 |  |  |  |  |  |  |  |  |  |  |
| NCI-H1648 | 1.19 | 0.762 | 0.665 | 0.748 | 0.294 |  |  |  |  |  |  |  | 0.673 | 0.652 | 0.568 | 0.691 | 0.652 | 0.995 | 0.714 | 0.682 |
